What all share (assay type): biochemical
One test deals with T1, JAK3 (Homo sapiens, UniProt P52333).
T1 construct: made in house; host or cells: SF9 insect cells (baculovirus)
The experiment in a line: JAK3 inhibition (Table 4). As to conditions: read-out: JAK3 Ki.

Another test has as its target T2, JAK1 (Homo sapiens, UniProt P23458).
T2 construct: made in house; host or cells: SF9 insect cells (baculovirus)
Nature of the test: JAK1 inhibition (Table 4). The settings on record: read-out: JAK1 Ki.

In a further test the target is T3, TYK2 (Homo sapiens, UniProt P29597).
T3 construct: made in house; host or cells: SF9 insect cells (baculovirus)
T3 sequence (P29597 873-1187): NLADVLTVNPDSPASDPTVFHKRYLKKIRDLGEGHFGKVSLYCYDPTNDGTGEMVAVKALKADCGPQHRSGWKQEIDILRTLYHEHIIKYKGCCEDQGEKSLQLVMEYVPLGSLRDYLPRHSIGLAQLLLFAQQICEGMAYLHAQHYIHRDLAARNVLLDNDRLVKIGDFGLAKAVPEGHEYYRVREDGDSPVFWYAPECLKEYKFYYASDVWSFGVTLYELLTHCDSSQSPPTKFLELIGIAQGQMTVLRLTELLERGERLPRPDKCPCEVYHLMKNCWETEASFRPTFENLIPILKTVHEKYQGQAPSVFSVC
The experiment in a line: TYK2 inhibition (Table 4).

The target in the next test is T4, JAK2 (Homo sapiens, UniProt O60674).
T4 construct: made in house; host or cells: SF9 insect cells (baculovirus)
The experiment in a line: JAK2 inhibition (Table 4). The settings on record: read-out: JAK2 Ki.

What is called Ki is the equilibrium dissociation constant of an inhibitor or competing ligand from its target.

T1 sequence (P52333 783-1124): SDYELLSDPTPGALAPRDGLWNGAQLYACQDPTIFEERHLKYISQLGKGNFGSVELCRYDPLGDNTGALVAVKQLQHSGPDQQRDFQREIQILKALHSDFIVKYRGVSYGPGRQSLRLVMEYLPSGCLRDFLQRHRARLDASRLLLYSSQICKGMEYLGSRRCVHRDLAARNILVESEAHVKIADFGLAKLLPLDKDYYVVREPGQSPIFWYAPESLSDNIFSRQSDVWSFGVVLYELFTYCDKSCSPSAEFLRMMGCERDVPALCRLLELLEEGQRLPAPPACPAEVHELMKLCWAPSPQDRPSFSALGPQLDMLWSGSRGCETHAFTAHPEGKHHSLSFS
T4 sequence (O60674 812-1132): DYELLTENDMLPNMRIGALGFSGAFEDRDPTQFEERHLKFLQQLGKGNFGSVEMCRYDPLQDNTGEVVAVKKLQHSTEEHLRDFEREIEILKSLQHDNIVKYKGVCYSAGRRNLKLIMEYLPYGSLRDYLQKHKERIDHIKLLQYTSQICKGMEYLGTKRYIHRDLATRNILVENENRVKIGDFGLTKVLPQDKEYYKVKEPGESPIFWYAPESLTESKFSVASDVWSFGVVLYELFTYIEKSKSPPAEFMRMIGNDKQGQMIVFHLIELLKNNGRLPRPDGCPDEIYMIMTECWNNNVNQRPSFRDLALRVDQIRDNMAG
T2 sequence (P23458 852-1154): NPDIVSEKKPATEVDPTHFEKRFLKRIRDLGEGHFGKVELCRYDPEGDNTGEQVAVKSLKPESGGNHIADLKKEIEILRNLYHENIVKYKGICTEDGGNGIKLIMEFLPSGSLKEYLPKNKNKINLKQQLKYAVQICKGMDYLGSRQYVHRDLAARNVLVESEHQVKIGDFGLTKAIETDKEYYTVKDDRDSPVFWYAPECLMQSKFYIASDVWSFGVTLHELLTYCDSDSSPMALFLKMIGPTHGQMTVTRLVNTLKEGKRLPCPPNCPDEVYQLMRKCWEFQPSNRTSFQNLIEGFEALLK

As for `CC(=O)NC1CCCC(n2cnc3cnc4[nH]ccc4c32)C1` (single isomer, unassigned) [Example 478, N-[3-(6H-1,3,5,6-Tetraaza-as-indacen-1-yl)-cyclohexyl]-acetamide], the Ki at JAK3 came out at 527 nM; at JAK1, 83.3 nM; on TYK2 it was 425 nM; at JAK2, 125 nM.

As for `CC(=O)NC1CCCC(n2cnc3cnc4[nH]ccc4c32)C1` (single isomer, unassigned) [Example 479, N-[3-(6H-1,3,5,6-Tetraaza-as-indacen-1-yl)-cyclohexyl]-acetamide], the Ki at JAK3 is 121 nM; on JAK1, 130 nM; on TYK2, 420 nM; on JAK2 it was 123 nM.

On to `COCC(=O)NC1CCCC(n2cnc3cnc4[nH]ccc4c32)C1` (single isomer, unassigned) [Example 480, 2-Methoxy-N-[3-(6H-1,3,5,6-tetraaza-as-indacen-1-yl)-cyclohexyl]-acetamide], for which the Ki on JAK3 came out at 563 nM; on JAK1, 264 nM; on TYK2 it was 1100 nM; at JAK2 it was 179 nM.

Consider `COCC(=O)NC1CCCC(n2cnc3cnc4[nH]ccc4c32)C1` (single isomer, unassigned) [Example 481, 2-Methoxy-N-[3-(6H-1,3,5,6-tetraaza-as-indacen-1-yl)-cyclohexyl]-acetamide], for which the Ki at JAK3 came to 833 nM; at JAK1, 127 nM; at TYK2, 793 nM; on JAK2 it was 268 nM.

In the case of `COCC(=O)NC1CCCC(n2cnc3cnc4[nH]ccc4c32)C1` (single isomer, unassigned) [Example 482, 2-Methoxy-N-[3-(6H-1,3,5,6-tetraaza-as-indacen-1-yl)-cyclohexyl]-acetamide], the Ki on JAK3 stood at 150 nM; at JAK1, 55.8 nM; at TYK2 it was 845 nM; on JAK2 it was 97.6 nM.

With `OC1CCCC(n2nnc3cnc4[nH]ccc4c32)C1` (single isomer, unassigned) [Example 551, 3-(6H-1,2,3,5,6-Pentaaza-as-indacen-1-yl)-cyclohexanol], the Ki is 128 nM at JAK3, 13.5 nM on JAK1, 88.6 nM at TYK2 and 19 nM at JAK2.

Regarding `OC1CCCC(n2nnc3cnc4[nH]ccc4c32)C1` (single isomer, unassigned) [Example 552, 3-(6H-1,2,3,5,6-Pentaaza-as-indacen-1-yl)-cyclohexanol], the Ki at JAK3 is 11.8 nM; at JAK1 it was 6.59 nM; on TYK2 it was 24.2 nM; at JAK2, 10.2 nM.

For the molecule `OC1CCCC(n2nnc3cnc4[nH]ccc4c32)C1` (single isomer, unassigned) [Example 553, 3-(6H-1,2,3,5,6-Pentaaza-as-indacen-1-yl)-cyclohexanol], the Ki on JAK3 came out at 42.5 nM; at JAK1, 8.59 nM; on TYK2 it was 33.5 nM; on JAK2, 20.4 nM.

Take `OC1CCCC(n2nnc3cnc4[nH]ccc4c32)C1` (single isomer, unassigned) [Example 554, 3-(6H-1,2,3,5,6-Pentaaza-as-indacen-1-yl)-cyclohexanol]: the Ki on JAK3 was 77.3 nM; at JAK1 it was 13.3 nM; on TYK2, 60.6 nM; at JAK2, 31.6 nM.

Turning to `OC1CCCC(n2cnc3cnc4[nH]ccc4c32)C1` (single isomer, unassigned) [Example 559, 3-(6H-1,3,5,6-Tetraaza-as-indacen-1-yl)-cyclohexanol], the Ki on JAK3 was found to be 52.9 nM; at JAK1, 10.3 nM; at TYK2, 38.5 nM; on JAK2, 24 nM.

`OC1CCCC(n2cnc3cnc4[nH]ccc4c32)C1` (single isomer, unassigned) [Example 560, 3-(6H-1,3,5,6-Tetraaza-as-indacen-1-yl)-cyclohexanol]: the Ki on JAK3 is 37.5 nM; at JAK1, 8.14 nM; on TYK2 it was 47.3 nM; on JAK2, 13.2 nM.

Regarding `OC1CCCC(n2cnc3cnc4[nH]ccc4c32)C1` (single isomer, unassigned) [Example 561, 3-(6H-1,3,5,6-Tetraaza-as-indacen-1-yl)-cyclohexanol], the Ki on JAK3 amounted to 14.5 nM; at JAK1, 7.29 nM; on TYK2, 24.5 nM; on JAK2, 17.9 nM.

As for `OC1CCCC(n2cnc3cnc4[nH]ccc4c32)C1` (single isomer, unassigned) [Example 562, 3-(6H-1,3,5,6-Tetraaza-as-indacen-1-yl)-cyclohexanol], the Ki at JAK3 is 5.89 nM; at JAK1 it was 4.58 nM; on TYK2 it was 12 nM; at JAK2 it was 7.55 nM.

For `c1cc2c(ncc3nc(C4CCCN4)n(C4CCCOC4)c32)[nH]1` (single isomer, unassigned) [Example 668], the Ki at JAK3 stood at 2620 nM; on JAK1, 1020 nM; on TYK2 it was 3240 nM; on JAK2, 2940 nM.

For the molecule `C[C@@H](N)c1nc2cnc3[nH]ccc3c2n1C1CCCOC1` (single isomer, unassigned) [Example 669, 1-[1-(Tetrahydro-pyran-3-yl)-1,6-dihydro-1,2,3,5,6-tetraaza-as-indacen-2-yl]-ethylamine], the Ki on JAK3 was 823 nM; on JAK1, 137 nM; at TYK2, 681 nM; on JAK2, 913 nM.

For the molecule `CCOC(=O)NCCc1nc2cnc3[nH]ccc3c2n1C1CCN(CC)CC1(F)F` (single isomer, unassigned) [Example 679, {2-[1-(1-Ethyl-3,3-difluoro-piperidin-4-yl)-1,6-dihydro-1,2,3,5,6-tetraaza-as-indacen-2-yl]-ethyl}-carbamic acid ethyl ester], the Ki worked out at 27.7 nM on JAK3, 7.45 nM on JAK1, 413 nM on TYK2 and 55.5 nM on JAK2.

Consider `CCOC(=O)NCCc1nc2cnc3[nH]ccc3c2n1C1CCN(CC)CC1(F)F` (single isomer, unassigned) [Example 680, {2-[1-(1-Ethyl-3,3-difluoro-piperidin-4-yl)-1,6-dihydro-1,2,3,5,6-tetraaza-as-indacen-2-yl]-ethyl}-carbamic acid ethyl ester], for which the Ki at JAK3 came to 28.4 nM; on JAK1, 7.32 nM; on TYK2, 412 nM; at JAK2, 56.3 nM.

Turning to `CCN1CCC(n2c(CCNS(C)(=O)=O)nc3cnc4[nH]ccc4c32)C(F)(F)C1` (single isomer, unassigned) [Example 805, N-{2-[1-(1-Ethyl-3,3-difluoro-piperidin-4-yl)-1,6-dihydro-1,3,5,6-tetraaza-as-indacen-2-yl]-ethyl}-methanesulfonamide], the Ki stood at 9.01 nM on JAK3, 2.8 nM at JAK1, 158 nM on TYK2 and 36 nM at JAK2.

Consider `CCN1CCC(n2c(CCNS(C)(=O)=O)nc3cnc4[nH]ccc4c32)C(F)(F)C1` (single isomer, unassigned) [Example 806, N-{2-[1-(1-Ethyl-3,3-difluoro-piperidin-4-yl)-1,6-dihydro-1,3,5,6-tetraaza-as-indacen-2-yl]-ethyl}-methanesulfonamide], for which the Ki on JAK3 is 17.9 nM; at JAK1 it was 3.41 nM; at TYK2, 179 nM; on JAK2, 21.2 nM.

For the origin of these results see patent US8461328B2, “Tricyclic heterocyclic compounds, compositions and methods of use thereof” (Genentech, Inc., priority 2010, dated 2013).
